Results from ChEMBL document CHEMBL4507277.

Tests used:
Conditions in all cases: Compound concentration 10.0 uM
[1] = target: 5-hydroxytryptamine receptor 5A (Homo sapiens) (UniProt P47898)
[2] = target: Alpha-1A adrenergic receptor (Homo sapiens) (UniProt P35348)
[3] = target: Polyunsaturated fatty acid lipoxygenase ALOX15 (Oryctolagus cuniculus) (UniProt P12530)
[4] = target: Serotonin 1 (5-HT1) receptor (Rattus norvegicus) (UniProt P28564+P30940+P19327+P28565)
[5] = target: Serotonin 2 (5-HT2) receptor (Rattus norvegicus) (UniProt P30994+P08909+P14842)
[6] = target: T1, 5-hydroxytryptamine receptor 3A (Homo sapiens) (UniProt P46098)
T1 sequence (whole entry): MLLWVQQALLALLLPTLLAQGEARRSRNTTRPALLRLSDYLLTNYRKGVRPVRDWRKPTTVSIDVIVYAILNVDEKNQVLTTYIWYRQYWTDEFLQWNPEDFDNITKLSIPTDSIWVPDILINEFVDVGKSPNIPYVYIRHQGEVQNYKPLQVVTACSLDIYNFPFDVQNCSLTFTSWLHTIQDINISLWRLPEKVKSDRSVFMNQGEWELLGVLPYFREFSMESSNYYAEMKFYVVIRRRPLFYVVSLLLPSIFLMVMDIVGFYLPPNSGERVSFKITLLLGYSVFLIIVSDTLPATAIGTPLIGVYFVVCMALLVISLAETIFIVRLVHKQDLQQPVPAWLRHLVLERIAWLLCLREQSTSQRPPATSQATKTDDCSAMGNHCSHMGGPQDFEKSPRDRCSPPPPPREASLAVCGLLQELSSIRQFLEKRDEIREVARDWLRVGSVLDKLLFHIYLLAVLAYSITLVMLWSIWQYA

[7] = target: 5-hydroxytryptamine receptor 4 (Cavia porcellus) (UniProt O70528)
[8] = target: Polyunsaturated fatty acid 5-lipoxygenase (Homo sapiens) (UniProt P09917)
[9] = target: Adenosine receptor A1 (Homo sapiens) (UniProt P30542)
[10] = target: Acetylcholinesterase (Homo sapiens) (UniProt P22303)
Sequence of Acetylcholinesterase (Homo sapiens) (P22303 whole entry): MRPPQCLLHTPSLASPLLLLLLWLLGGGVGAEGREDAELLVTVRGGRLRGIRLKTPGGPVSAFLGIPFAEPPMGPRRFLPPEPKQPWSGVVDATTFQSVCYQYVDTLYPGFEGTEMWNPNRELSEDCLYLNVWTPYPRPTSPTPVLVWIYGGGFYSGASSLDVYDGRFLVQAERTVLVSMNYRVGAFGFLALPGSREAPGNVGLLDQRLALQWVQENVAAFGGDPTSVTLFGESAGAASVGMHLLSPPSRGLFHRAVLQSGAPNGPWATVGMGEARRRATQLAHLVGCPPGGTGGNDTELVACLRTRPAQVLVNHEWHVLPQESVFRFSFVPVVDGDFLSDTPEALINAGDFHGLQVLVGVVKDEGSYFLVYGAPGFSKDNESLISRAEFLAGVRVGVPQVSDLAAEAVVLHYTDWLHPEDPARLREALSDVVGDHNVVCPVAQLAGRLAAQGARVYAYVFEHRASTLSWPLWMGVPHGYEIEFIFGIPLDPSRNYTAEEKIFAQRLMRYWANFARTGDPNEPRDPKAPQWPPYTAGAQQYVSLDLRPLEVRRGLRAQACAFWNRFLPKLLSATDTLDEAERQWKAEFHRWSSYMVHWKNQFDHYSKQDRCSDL

[11] = target: Adrenergic receptor alpha-1 (Rattus norvegicus) (UniProt P15823+P23944+P43140)
[12] = target: Angiotensin-converting enzyme (Oryctolagus cuniculus) (UniProt P12822)
[13] = target: Beta-2 adrenergic receptor (Rattus norvegicus) (UniProt P10608)
[14] = target: Nitric oxide synthase 3 (Rattus norvegicus) (UniProt Q62600)
[15] = target: D(2) dopamine receptor (Homo sapiens) (UniProt P14416)
Sequence of D(2) dopamine receptor (Homo sapiens) (P14416 whole entry): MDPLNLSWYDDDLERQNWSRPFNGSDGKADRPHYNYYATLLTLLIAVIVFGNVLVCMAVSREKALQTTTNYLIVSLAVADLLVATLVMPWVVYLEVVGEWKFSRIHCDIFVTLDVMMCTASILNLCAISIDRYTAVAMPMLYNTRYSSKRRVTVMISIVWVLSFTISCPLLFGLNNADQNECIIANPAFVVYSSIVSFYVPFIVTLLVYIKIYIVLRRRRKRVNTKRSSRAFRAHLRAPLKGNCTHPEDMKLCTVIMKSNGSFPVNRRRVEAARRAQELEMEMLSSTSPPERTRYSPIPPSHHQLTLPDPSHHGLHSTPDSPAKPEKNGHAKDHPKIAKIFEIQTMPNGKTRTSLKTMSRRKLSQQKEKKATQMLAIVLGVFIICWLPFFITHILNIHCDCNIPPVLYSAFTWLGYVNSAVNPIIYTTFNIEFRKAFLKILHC

[16] = target: T2, D(4) dopamine receptor (Homo sapiens) (UniProt P21917)
T2 sequence (whole entry): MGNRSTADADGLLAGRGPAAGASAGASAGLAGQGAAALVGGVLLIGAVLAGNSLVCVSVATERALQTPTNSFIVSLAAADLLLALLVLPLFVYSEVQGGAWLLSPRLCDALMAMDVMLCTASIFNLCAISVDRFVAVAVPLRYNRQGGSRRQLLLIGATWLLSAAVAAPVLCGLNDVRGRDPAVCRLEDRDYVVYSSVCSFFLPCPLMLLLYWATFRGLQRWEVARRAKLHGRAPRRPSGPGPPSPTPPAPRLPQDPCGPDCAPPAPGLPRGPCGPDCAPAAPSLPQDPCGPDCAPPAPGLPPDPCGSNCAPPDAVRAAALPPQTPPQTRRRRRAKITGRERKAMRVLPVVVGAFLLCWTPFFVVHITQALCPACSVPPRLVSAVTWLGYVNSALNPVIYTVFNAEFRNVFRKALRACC

[17] = target: Histamine H2 receptor (Homo sapiens) (UniProt P25021)
Sequence of Histamine H2 receptor (Homo sapiens) (P25021 whole entry, canonical isoform): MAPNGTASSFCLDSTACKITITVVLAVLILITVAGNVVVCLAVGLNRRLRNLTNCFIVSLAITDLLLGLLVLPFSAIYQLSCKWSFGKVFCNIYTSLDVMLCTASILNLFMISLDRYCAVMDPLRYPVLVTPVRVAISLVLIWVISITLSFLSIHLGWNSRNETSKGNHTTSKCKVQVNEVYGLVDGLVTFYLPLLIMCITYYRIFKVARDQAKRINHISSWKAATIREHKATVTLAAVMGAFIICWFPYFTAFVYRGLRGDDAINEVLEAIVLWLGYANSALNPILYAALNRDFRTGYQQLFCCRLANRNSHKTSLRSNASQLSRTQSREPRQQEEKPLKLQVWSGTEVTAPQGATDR

[18] = target: ATP-sensitive inward rectifier potassium channel 1 isoform X1 (Mesocricetus auratus) (UniProt A0A1U8CU73)
[19] = target: Leukotriene C4 synthase (Cavia porcellus) (UniProt A6XA80)
Sequence of Leukotriene C4 synthase (Cavia porcellus) (A6XA80 whole entry): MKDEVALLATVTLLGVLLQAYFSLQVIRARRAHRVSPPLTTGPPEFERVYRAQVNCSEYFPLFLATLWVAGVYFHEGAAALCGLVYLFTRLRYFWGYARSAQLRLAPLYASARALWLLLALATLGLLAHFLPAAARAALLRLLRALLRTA

[20] = target: Sodium-dependent noradrenaline transporter (Homo sapiens) (UniProt P23975)
Sequence of Sodium-dependent noradrenaline transporter (Homo sapiens) (P23975 whole entry): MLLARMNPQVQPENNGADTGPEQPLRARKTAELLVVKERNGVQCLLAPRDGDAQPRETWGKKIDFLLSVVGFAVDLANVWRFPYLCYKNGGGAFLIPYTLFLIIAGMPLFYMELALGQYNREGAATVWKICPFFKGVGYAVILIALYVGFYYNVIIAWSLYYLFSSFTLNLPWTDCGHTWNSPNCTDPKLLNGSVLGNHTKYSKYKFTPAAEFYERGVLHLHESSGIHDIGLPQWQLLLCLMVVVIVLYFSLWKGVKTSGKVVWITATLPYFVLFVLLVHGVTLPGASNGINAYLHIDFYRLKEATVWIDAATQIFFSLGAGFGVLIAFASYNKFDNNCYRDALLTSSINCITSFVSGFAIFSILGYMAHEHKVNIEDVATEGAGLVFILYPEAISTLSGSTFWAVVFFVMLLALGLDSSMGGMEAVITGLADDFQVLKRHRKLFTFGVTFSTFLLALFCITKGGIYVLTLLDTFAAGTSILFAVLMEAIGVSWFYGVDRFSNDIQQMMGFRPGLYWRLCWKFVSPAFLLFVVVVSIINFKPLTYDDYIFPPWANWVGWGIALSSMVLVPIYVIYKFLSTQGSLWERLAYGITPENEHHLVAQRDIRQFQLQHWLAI

[21] = target: cGMP-inhibited 3',5'-cyclic phosphodiesterase 3A (Homo sapiens) (UniProt Q14432)
Sequence of cGMP-inhibited 3',5'-cyclic phosphodiesterase 3A (Homo sapiens) (Q14432 whole entry): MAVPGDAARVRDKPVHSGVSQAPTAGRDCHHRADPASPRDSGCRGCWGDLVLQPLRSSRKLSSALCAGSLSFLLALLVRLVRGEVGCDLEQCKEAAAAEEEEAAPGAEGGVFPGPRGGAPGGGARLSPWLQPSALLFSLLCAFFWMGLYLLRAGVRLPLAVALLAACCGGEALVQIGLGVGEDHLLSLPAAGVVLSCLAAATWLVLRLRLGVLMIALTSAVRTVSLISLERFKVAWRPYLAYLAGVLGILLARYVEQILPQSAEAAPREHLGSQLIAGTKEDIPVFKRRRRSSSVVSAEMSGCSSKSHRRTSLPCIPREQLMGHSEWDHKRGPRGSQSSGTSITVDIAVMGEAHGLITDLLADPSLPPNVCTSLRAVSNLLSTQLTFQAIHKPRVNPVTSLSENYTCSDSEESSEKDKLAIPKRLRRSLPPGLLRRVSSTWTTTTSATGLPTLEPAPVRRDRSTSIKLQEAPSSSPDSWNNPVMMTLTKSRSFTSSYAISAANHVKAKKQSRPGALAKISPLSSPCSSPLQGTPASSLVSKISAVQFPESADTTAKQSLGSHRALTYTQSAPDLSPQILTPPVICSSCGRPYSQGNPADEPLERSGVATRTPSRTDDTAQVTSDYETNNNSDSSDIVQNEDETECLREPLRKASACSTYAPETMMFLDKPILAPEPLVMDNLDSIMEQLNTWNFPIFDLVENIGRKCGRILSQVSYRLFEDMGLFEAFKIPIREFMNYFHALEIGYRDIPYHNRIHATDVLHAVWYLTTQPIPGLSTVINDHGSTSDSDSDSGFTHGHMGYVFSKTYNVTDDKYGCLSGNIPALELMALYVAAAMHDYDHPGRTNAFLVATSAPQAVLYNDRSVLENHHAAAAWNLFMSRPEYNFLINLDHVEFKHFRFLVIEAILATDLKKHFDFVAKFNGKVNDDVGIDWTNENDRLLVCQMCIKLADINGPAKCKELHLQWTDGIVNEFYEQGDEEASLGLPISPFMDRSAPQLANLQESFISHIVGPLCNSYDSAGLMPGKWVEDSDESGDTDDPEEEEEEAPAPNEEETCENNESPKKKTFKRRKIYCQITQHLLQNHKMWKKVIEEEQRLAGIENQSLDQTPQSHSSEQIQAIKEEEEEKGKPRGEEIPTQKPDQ

[22] = target: 3',5'-cyclic-AMP phosphodiesterase 4A (Homo sapiens) (UniProt P27815)
Sequence of 3',5'-cyclic-AMP phosphodiesterase 4A (Homo sapiens) (P27815 whole entry): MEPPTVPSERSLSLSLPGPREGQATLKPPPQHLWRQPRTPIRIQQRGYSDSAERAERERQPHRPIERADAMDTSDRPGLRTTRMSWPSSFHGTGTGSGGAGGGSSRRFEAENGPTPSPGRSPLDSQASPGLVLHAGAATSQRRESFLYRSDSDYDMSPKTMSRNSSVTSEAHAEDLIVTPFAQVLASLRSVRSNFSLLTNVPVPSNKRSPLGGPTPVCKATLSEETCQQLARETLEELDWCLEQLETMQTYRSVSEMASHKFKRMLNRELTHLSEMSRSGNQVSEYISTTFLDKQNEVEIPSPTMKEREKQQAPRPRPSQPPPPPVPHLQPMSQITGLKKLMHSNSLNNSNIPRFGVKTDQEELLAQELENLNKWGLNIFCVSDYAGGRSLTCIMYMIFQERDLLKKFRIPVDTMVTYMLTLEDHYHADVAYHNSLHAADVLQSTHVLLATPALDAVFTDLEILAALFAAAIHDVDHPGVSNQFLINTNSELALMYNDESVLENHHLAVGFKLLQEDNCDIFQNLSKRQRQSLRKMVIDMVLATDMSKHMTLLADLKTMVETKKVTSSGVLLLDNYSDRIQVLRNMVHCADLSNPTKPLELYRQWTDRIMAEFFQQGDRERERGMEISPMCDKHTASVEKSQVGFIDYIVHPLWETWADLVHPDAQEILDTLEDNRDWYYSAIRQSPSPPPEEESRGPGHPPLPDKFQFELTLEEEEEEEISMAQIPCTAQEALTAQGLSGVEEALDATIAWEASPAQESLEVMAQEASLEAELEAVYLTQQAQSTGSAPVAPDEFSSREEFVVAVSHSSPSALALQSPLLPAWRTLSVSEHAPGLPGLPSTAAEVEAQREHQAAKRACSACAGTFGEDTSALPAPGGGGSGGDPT

[23] = target: Cathepsin G (Homo sapiens) (UniProt P08311)
Sequence of Cathepsin G (Homo sapiens) (P08311 whole entry): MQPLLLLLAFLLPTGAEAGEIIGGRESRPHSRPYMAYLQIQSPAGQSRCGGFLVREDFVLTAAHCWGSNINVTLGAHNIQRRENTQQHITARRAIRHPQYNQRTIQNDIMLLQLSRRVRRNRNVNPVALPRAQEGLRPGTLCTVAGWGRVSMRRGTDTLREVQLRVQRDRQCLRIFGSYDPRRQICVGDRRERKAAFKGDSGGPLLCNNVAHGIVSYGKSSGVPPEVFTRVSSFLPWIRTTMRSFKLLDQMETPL

[24] = target: Interstitial collagenase (Homo sapiens) (UniProt P03956)
Sequence of Interstitial collagenase (Homo sapiens) (P03956 whole entry): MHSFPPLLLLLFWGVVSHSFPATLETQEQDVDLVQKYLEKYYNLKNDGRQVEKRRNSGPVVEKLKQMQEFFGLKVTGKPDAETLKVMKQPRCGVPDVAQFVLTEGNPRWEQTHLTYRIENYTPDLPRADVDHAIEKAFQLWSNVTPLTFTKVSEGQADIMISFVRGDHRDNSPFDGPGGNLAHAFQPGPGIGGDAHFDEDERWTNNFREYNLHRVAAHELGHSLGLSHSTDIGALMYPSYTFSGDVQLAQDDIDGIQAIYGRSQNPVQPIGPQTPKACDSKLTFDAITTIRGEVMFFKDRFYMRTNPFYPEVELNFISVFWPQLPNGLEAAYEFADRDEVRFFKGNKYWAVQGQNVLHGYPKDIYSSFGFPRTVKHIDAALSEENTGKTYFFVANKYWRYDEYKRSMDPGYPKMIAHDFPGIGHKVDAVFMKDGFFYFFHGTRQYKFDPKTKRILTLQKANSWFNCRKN

[25] = target: Androgen receptor (Rattus norvegicus) (UniProt P15207)
[26] = target: 5-hydroxytryptamine receptor 1A (Homo sapiens) (UniProt P08908)
[27] = target: D(1A) dopamine receptor (Homo sapiens) (UniProt P21728)
[28] = target: D(2) dopamine receptor (Homo sapiens) (UniProt P14416); remark: listed apart in the source
[29] = target: Muscarinic acetylcholine receptor M3 (Homo sapiens) (UniProt P20309)

CCS(=O)(=O)c1cc2cc(C[C@](O)(CC(C)(C)c3ccc(F)cc3C(N)=O)C(F)(F)F)[nH]c2cn1
inactive: inhibition [1] 12.2% | inhibition [2] -0.31% | residual activity [3] 89% | residual activity [4] 118% | residual activity [5] 94% | residual activity [6] 100% | residual activity [7] 89% | residual activity [8] 79% | residual activity [9] 107% | residual activity [10] 91% | residual activity [11] 89% | residual activity [12] 109% | residual activity [13] 75% | residual activity [14] 99% | residual activity [15] 90% | residual activity [16] 104% | residual activity [17] 96% | residual activity [18] 104% | residual activity [19] 104% | residual activity [20] 102% | residual activity [21] 82% | residual activity [22] 81% | residual activity [23] 104% | residual activity [24] 94% | residual activity [25] 101%

CCS(=O)(=O)c1cc2cc(C[C@@](O)(CC(C)(C)c3ccc(F)cc3C(N)=O)C(F)(F)F)[nH]c2cn1
inactive: inhibition [26] -7.37% | inhibition [27] 2.6% | inhibition [28] -8.41% | inhibition [29] 1.25%
